Results on 5 compounds are retold here after patent US6869946B2, “Substituted azabicyclic moieties for the treatment of disease” (Pfizer Inc, priority 2001, dated 2005).

The target of this assay is T1, α7 nAChR (Rattus norvegicus, UniProt Q05941).
T1 construct: brains (whole brain minus cerebellum) are dissected quickly, weighed and homogenized; from tissue; host or cells: rat brain (whole brain minus cerebellum) membranes
T1 sequence (Q05941 23-502): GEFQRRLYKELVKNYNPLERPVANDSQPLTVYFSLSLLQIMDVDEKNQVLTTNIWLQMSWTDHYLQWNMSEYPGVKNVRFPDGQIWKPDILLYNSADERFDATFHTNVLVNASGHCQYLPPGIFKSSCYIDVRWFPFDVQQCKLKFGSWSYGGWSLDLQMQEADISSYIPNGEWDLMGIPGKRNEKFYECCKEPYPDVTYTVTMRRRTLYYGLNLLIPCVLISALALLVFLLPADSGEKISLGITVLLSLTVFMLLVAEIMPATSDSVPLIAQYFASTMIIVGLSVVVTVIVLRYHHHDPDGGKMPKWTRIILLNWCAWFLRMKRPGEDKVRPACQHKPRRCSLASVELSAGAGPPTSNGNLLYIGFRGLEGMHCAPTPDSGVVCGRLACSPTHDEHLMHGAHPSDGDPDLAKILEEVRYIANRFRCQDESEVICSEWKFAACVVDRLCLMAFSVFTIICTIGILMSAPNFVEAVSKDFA
The experiment in a line: [3H]-MLA competition binding assay in rat brain membranes. The conditions noted are these: inhibition of [3H]-MLA binding, rat brain homogenate (whole brain minus cerebellum), Cheng-Prusoff. Here is the method: Materials and Methods for Identifying Binding Constants:
Membrane Preparation. Male Sprague-Dawley rats (300-350 g) are sacrificed by decapitation and the brains (whole brain minus cerebellum) are dissected quickly, weighed and homogenized in 9 volumes/g wet weight of ice-cold 0.32 M sucrose using a rotating pestle on setting 50 (10 up and down strokes). The homogenate is centrifuged at 1,000× g for 10 minutes at 4° C. The supernatant is collected and centrifuged at 20,000× g for 20 minutes at 4° C. The resulting pellet is resuspended to a protein concentration of 1-8 mg/mL. Aliquots of 5 mL homogenate are frozen at −80° C. until needed for the assay. On the day of the assay, aliquots are thawed at room temperature and diluted with Kreb's—20 mM Hepes buffer pH 7.0 (at room temperature) containing 4.16 mM NaHCO3, 0.44 mM KH2PO4, 127 MM NaCl, 5.36 mM KCl, 1.26 mM CaCl2, and 0.98 mM MgCl2, so that 25-150 μg protein are added per test tube. Protein concentration is determined by the Bradford method (Bradford, M. M., Anal. Biochem., 72, 248-254, 1976) using bovine serum albumin as the standard.
Binding Assay. For saturation studies, 0.4 mL homogenate are added to test tubes containing buffer and various concentrations of radioligand, and are incubated in a final volume of 0.5 mL for 1 hour at 25° C. Nonspecific binding was determined in tissues incubated in parallel in the presence of 1 μM MLA, added before the radioligand. In competition studies, drugs are added in increasing concentrations to the test tubes before addition of approximately 3.0 to 4.0 nM [^3H]-MLA. The incubations are terminated by rapid vacuum filtration through Whatman GF/B glass filter paper mounted on a 48 well Brandel cell harvester. Filters are pre-soaked in 50 mM Tris HCl pH 7.0-0.05% polyethylenimine. The filters are rapidly washed two times with 5 mL aliquots of cold 0.9% saline and then counted for radioactivity by liquid scintillation spectrometry.
Data Analysis. In competition binding studies, the inhibition constant (Ki) was calculated from the concentration dependent inhibition of [^3H]-MLA binding obtained from non-linear regression fitting program according to the Cheng-Prusoff equation (Cheng, Y. C. and Prussoff, W. H., Biochem. Pharmacol., 22, p. 3099-3108, 1973). Hill coefficients were obtained using non-linear regression (GraphPad Prism sigmoidal dose-response with variable slope).
As usually defined, the Ki is a measure of affinity in units of concentration, obtained from inhibition or displacement. A low value points to higher affinity. Regarding `O=C(NC1CC2CCN(C2)C1)c1ccc(Cl)cc1` (racemic) [Example 3 (racemic), Exo-N-[1-azabicyclo[3.2.1]oct-3-yl]-4-chlorobenzamide 4-methylbenzenesulfonate], the affinity, expressed as Ki, was 115 nM. Compound `C[C@H]1[C@H](NC(=O)c2ccc(Cl)cc2)C2CCN1CC2` [Example 1(b)(i), 4-chloro-N-[(2S,3R)-2-methyl-1-azabicyclo[2.2.2]oct-3-yl]benzamide 4-methylbenzenesulfonate] registered a Ki of 65 to 140 nM. For the compound `O=C(N[C@H]1C[C@@H]2CCN(C2)C1)c1ccc(Cl)cc1` [Example 3 (3S, 5S), (3S,5S)-N-(1-azabicyclo[3.2.1]oct-3-yl)-4-chlorobenzamide 4-methylbenzenesulfonate], the Ki is above 1000 nM. Consider `O=C(N[C@H]1CN2CCC1CC2)c1ccc(Cl)cc1` [Example 1(a)], for which the Ki came out at 26 nM. This counts as double-digit nanomolar. The compound `O=C(N[C@@H]1C[C@H]2CCN(C2)C1)c1ccc(Cl)cc1` [Example 3 (3R, 5R), (3R,5R)-N-(1-azabicyclo[3.2.1]oct-3-yl)-4-chlorobenzamide 4-methylbenzenesulfonate] yielded a Ki of 18 nM. The Ki values of the last two compounds are within 1.5-fold of each other.
